In patent publication US20250325552A1, “SUBSTITUTED THIADIAZOLYL DERIVATIVES AS DNA POLYMERASE THETA INHIBITORS” (IDEAYA Biosciences, Inc., priority 2020, published 2025) one finds IC50 data, which are given here for 21 compounds.

The target of this experiment is Polθ theta (1-899) (hPolQ) (Homo sapiens (Human), UniProt O75417). Kind of experiment: Biological Assay 1: Polθ ATPase activity, NADH oxidation-coupled enzymatic assay (10 nM enzyme, 30 min). The format is biochemical. As to conditions: Polθ (1-899) 10 nM, 100 μM ATP, 300 nM dT50 ssDNA, read-out: ATPase NADH coupling:Standard Screening:hPolQ IC50. A digest of the protocol:
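Polθ (1-899) at 10 nM was preincubated with compound for 15 min at room temperature in 20 mM Tris pH 7.80, 80 mM KCl, 10 mM MgCl2. An equal volume of 100 μM ATP, 300 nM dT50 ssDNA and a PK/LDH–NADH coupling system was then added. A340 was read each minute for 30 min. IC50 came from rate slopes over 10-point series with a four-parameter fit.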

Where two headings read alike, the source gives them in different places.

Chain of Polθ theta (1-899) (hPolQ) (O75417 1-899): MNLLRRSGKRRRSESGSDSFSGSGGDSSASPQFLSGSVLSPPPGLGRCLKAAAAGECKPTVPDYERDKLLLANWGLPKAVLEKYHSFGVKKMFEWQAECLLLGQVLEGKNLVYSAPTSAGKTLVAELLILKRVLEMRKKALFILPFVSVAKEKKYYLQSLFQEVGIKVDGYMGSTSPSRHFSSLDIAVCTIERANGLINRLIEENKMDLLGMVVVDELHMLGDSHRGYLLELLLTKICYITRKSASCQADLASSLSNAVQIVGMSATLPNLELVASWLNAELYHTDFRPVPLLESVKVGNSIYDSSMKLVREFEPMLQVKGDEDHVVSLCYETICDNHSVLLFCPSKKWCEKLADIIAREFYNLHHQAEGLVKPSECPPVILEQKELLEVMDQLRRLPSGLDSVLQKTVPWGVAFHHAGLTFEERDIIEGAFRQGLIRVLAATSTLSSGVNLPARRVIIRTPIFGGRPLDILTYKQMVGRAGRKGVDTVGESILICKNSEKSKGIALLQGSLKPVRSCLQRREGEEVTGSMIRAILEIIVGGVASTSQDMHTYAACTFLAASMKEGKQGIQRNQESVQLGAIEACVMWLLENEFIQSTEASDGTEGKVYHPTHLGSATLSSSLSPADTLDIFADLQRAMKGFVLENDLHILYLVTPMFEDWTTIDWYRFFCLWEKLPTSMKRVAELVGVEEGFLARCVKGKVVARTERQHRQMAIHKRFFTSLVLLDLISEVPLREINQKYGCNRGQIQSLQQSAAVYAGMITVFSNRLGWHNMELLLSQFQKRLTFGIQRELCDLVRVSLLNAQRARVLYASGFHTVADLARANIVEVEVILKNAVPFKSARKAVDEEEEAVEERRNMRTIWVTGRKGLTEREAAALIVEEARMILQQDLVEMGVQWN

`COc1cccc(F)c1-c1cc(C)ncc1C(=O)Nc1nnc(OCc2ccc([S@](C)(=N)=O)cn2)s1` [Example 149, 4-(2-fluoro-6-methoxyphenyl)-6-methyl-N-(5-((5-((R)—S-methylsulfonimidoyl)pyridin-2-yl)methoxy)-1,3,4-thiadiazol-2-yl)nicotinamide]: the 50% inhibitory concentration (IC50) – broadly, the concentration that inhibits the measured activity by half – (Examples 1 to 268) was at most 200 nM.

Regarding `COc1cccc(F)c1-c1cc(C)ncc1C(=O)Nc1nnc(OCc2ccc([S@@](C)(=N)=O)cn2)s1` [Example 150, 4-(2-fluoro-6-methoxyphenyl)-6-methyl-N-(5-((5-((S)—S-methylsulfonimidoyl)pyridin-2-yl)methoxy)-1,3,4-thiadiazol-2-yl)nicotinamide], the IC50 (Examples 1 to 268) is at most 200 nM.

Regarding `COc1cnc(Cl)cc1-c1cc(C)ncc1C(=O)Nc1nnc(OCc2ccc3c(n2)CCOC3)s1` [Example 151, 2′-chloro-5′-methoxy-6-methyl-N-(5-(5H,7H,8H-pyrano(4,3-b)pyridin-2-ylmethoxy)-1,3,4-thiadiazol-2-yl)-(4,4′-bipyridine)-3-carboxamide], for the setting “Examples 1 to 268”, the IC50 is at most 200 nM.

Consider `CN=[S@@](C)(=O)c1ccc(COc2nnc(NC(=O)c3cnc(C)cc3-c3cc(Cl)ccc3OC)s2)nc1` [Example 152, (S)-4-(5-chloro-2-methoxyphenyl)-N-(5-((5-(N,S-dimethylsulfonimidoyl)pyridin-2-yl)methoxy)-1,3,4-thiadiazol-2-yl)-6-methylnicotinamide], for which the IC50 (Examples 1 to 268) is at most 200 nM.

With `COc1cnc(Cl)cc1-c1cc(C)ncc1C(=O)Nc1nnc(OCC2CCC(F)(F)CC2)s1` [Example 153, 2′-chloro-N-(5-((4,4-difluorocyclohexyl)methoxy)-1,3,4-thiadiazol-2-yl)-5′-methoxy-6-methyl-(4,4′-bipyridine)-3-carboxamide], where the note is “Examples 1 to 268”, the IC50 is at most 200 nM.

For the compound `CN=[S@](C)(=O)c1ccc(COc2nnc(NC(=O)c3cnc(C)cc3-c3c(F)cccc3OC)s2)cc1` [Example 154, N-(5-((4-((R)—N,S-dimethylsulfonimidoyl)benzyl)oxy)-1,3,4-thiadiazol-2-yl)-4-(2-fluoro-6-methoxyphenyl)-6-methylnicotinamide], the IC50 (Examples 1 to 268) was at most 200 nM.

On to `CN=[S@@](C)(=O)c1ccc(COc2nnc(NC(=O)c3cnc(C)cc3-c3c(F)cccc3OC)s2)cc1` [Example 155, N-(5-((4-((S)—N,S-dimethylsulfonimidoyl)benzyl)oxy)-1,3,4-thiadiazol-2-yl)-4-(2-fluoro-6-methoxyphenyl)-6-methylnicotinamide], for which the IC50 (Examples 1 to 268) was at most 200 nM.

Take `COc1cnc(Cl)cc1-c1cc(C)ncc1C(=O)Nc1nnc(OCC2CC3CC2CN3C(=O)C(C)C)s1` (stereo not drawn) [Example 156, 2′-chloro-N-(5-((2-isobutyryl-2-azabicyclo[2.2.1]heptan-5-yl)methoxy)-1,3,4-thiadiazol-2-yl)-5′-methoxy-6-methyl-[4,4′-bipyridine]-3-carboxamide]: the IC50 (Examples 1 to 268) is at most 200 nM.

Take `O=C(Nc1nnc(OCC2CCOCC2)s1)c1cccnc1N1CCOCC1` [Example 157, 2-morpholino-N-(5-((tetrahydro-2H-pyran-4-yl)methoxy)-1,3,4-thiadiazol-2-yl)nicotinamide]: the IC50 (value printed as bound) is over 10000 nM.

Consider `COc1cccc(F)c1-c1cc(C)ncc1C(=O)Nc1nnc(OCC2CCS(=O)(=O)CC2)s1` [Example 158, N-(5-((1,1-dioxidotetrahydro-2H-thiopyran-4-yl)methoxy)-1,3,4-thiadiazol-2-yl)-4-(2-fluoro-6-methoxyphenyl)-6-methylnicotinamide], for which, under “Examples 1 to 268”, the IC50 was at most 200 nM.

Regarding `COc1cnc(Cl)cc1-c1cc(C)ncc1C(=O)Nc1nnc(OC[C@H]2CC[C@H](OC(F)F)CC2)s1` [Example 159, 2′-chloro-N-(5-(((1r,4r)-4-(difluoromethoxy)cyclohexyl)methoxy)-1,3,4-thiadiazol-2-yl)-5′-methoxy-6-methyl-(4,4′-bipyridine)-3-carboxamide], the concentration for half-maximal inhibition (IC50) (Examples 1 to 268) was at most 200 nM.

As for `COc1cnc(Cl)cc1-c1cc(C)ncc1C(=O)Nc1nnc(OCC2(C)COC2)s1` [Example 162, 2′-chloro-5′-methoxy-6-methyl-N-(5-((3-methyloxetan-3-yl)methoxy)-1,3,4-thiadiazol-2-yl)-(4,4′-bipyridine)-3-carboxamide], for the setting “Examples 1 to 268”, the IC50 was at most 200 nM.

On to `COc1cnc(Cl)cc1-c1cc(C)ncc1C(=O)Nc1nnc(OCC23CC(C(C)(C)F)(C2)C3)s1` [Example 163, 2′-chloro-N-(5-((3-(2-fluoropropan-2-yl)bicyclo(1.1.1)pentan-1-yl)methoxy)-1,3,4-thiadiazol-2-yl)-5′-methoxy-6-methyl-(4,4′-bipyridine)-3-carboxamide], for which the IC50 (Examples 1 to 268) was at most 200 nM.

For `COc1cnc(Cl)cc1-c1cc(C)ncc1C(=O)Nc1nnc(OCC2COC2)s1` [Example 164, 2′-chloro-5′-methoxy-6-methyl-N-(5-(oxetan-3-ylmethoxy)-1,3,4-thiadiazol-2-yl)-(4,4′-bipyridine)-3-carboxamide], the IC50 (Examples 1 to 268) was at most 200 nM.

`COc1cnc(Cl)cc1-c1cc(C)ncc1C(=O)Nc1nnc(OCC2CS(=O)(=O)C2)s1` [Example 166, 2′-chloro-N-(5-((1,1-dioxidothietan-3-yl)methoxy)-1,3,4-thiadiazol-2-yl)-5′-methoxy-6-methyl-(4,4′-bipyridine)-3-carboxamide]: the IC50 (Examples 1 to 268) was at most 200 nM.

In the case of `COc1cnc(Cl)cc1-c1cc(C)ncc1C(=O)Nc1nnc(OCC2CC3(COC3)C2)s1` [Example 172, N-(5-((2-oxaspiro(3.3)heptan-6-yl)methoxy)-1,3,4-thiadiazol-2-yl)-2′-chloro-5′-methoxy-6-methyl-(4,4′-bipyridine)-3-carboxamide], under “Examples 1 to 268”, the IC50 was at most 200 nM.

Take `COc1cnc(Cl)cc1-c1cc(C)ncc1C(=O)Nc1nnc(OCC2CNC2)s1` [Example 173, N-(5-(azetidin-3-ylmethoxy)-1,3,4-thiadiazol-2-yl)-2′-chloro-5′-methoxy-6-methyl-(4,4′-bipyridine)-3-carboxamide]: the IC50 (Examples 1 to 268) was 1000 to 10000 nM.

Regarding `COc1cnc(Cl)cc1-c1cc(C)ncc1C(=O)Nc1nnc(OCC2CCNCC2)s1` [Example 174, 2′-chloro-5′-methoxy-6-methyl-N-(5-(piperidin-4-ylmethoxy)-1,3,4-thiadiazol-2-yl)-(4,4′-bipyridine)-3-carboxamide], for the setting “Examples 1 to 268”, the IC50 was at most 200 nM.

For the compound `COc1cnc(Cl)cc1-c1cc(C)ncc1C(=O)Nc1nnc(OCC2CCN(C)C2)s1` (stereo not drawn) [Example 176, 2′-chloro-5′-methoxy-6-methyl-N-(5-((1-methylpyrrolidin-3-yl)methoxy)-1,3,4-thiadiazol-2-yl)-(4,4′-bipyridine)-3-carboxamide], the IC50 (Examples 1 to 268) lay in the range of 200 to 500 nM.

For `COc1cnc(Cl)cc1-c1cc(C)ncc1C(=O)Nc1nnc(OCC2CCOC2C)s1` (stereo not drawn) [Example 177, 2′-chloro-5′-methoxy-6-methyl-N-(5-((2-methyltetrahydrofuran-3-yl)methoxy)-1,3,4-thiadiazol-2-yl)-(4,4′-bipyridine)-3-carboxamide], the IC50 (Examples 1 to 268) was at most 200 nM.

With `COc1cnc(Cl)cc1-c1cc(C)ncc1C(=O)Nc1nnc(OCC2CCN(C)CC2)s1` [Example 178, 2′-chloro-5′-methoxy-6-methyl-N-(5-((1-methylpiperidin-4-yl)methoxy)-1,3,4-thiadiazol-2-yl)-(4,4′-bipyridine)-3-carboxamide], the IC50 (Examples 1 to 268) was in the range of 200 to 500 nM.
